Like-named read-outs stand apart in the source and are kept apart here.
Settings: Week 16

## CCCN[C@@H]1CCc2nc(N)sc2C1 [Dexpramipexole, (6R)-2-amino-4,5,6,7-tetrahydro-6-(propylamino)benzothiazole]
<50% AEC reduction at Week 16
  Pre-BD FEF25-75 % change from baseline, Max: −3%
  Pre-BD FEF25-75 % change from baseline, Mean ± SD: −14.5 ± 19.68%
  Pre-BD FEF25-75 % change from baseline, Median: −5.5%
  Pre-BD FEF25-75 % change from baseline, Min: −44%
  Pre-BD FEF25-75 % change from baseline, Q1: −25%
  Pre-BD FEF25-75 % change from baseline, Q3: −4%
  Pre-BD FEF25-75 Observed, Max: 780 mL/s
  Pre-BD FEF25-75 Observed, Mean ± SD: 505.0 ± 266.15 mL/s
  Pre-BD FEF25-75 Observed, Median: 505.0 mL/s
  Pre-BD FEF25-75 Observed, Min: 230 mL/s
  Pre-BD FEF25-75 Observed, Q1: 280 mL/s
  Pre-BD FEF25-75 Observed, Q3: 730 mL/s
  Pre-BD FEF25-75 change from baseline, Max: -10 mL/s
  Pre-BD FEF25-75 change from baseline, Mean ± SD: -170.0 ± 293.94 mL/s
  Pre-BD FEF25-75 change from baseline, Median: -30.0 mL/s
  Pre-BD FEF25-75 change from baseline, Min: -610 mL/s
  Pre-BD FEF25-75 change from baseline, Q1: -330 mL/s
  Pre-BD FEF25-75 change from baseline, Q3: -10 mL/s
  Pre-BD FEV1 % change from baseline, Max: 3%
  Pre-BD FEV1 % change from baseline, Mean ± SD: −11.4 ± 15.14%
  Pre-BD FEV1 % change from baseline, Median: −8.5%
  Pre-BD FEV1 % change from baseline, Min: −32%
  Pre-BD FEV1 % change from baseline, Q1: −22%
  Pre-BD FEV1 % change from baseline, Q3: 0%
  Pre-BD FEV1 Observed, Max: 1660 mL
  Pre-BD FEV1 Observed, Mean ± SD: 1280.0 ± 399.67 mL
  Pre-BD FEV1 Observed, Median: 1370.0 mL
  Pre-BD FEV1 Observed, Min: 720 mL
  Pre-BD FEV1 Observed, Q1: 1020 mL
  Pre-BD FEV1 Observed, Q3: 1540 mL
  Pre-BD FEV1 change from baseline, Max: 50 mL
  Pre-BD FEV1 change from baseline, Mean ± SD: -192.5 ± 318.58 mL
  Pre-BD FEV1 change from baseline, Median: -80.0 mL
  Pre-BD FEV1 change from baseline, Min: -660 mL
  Pre-BD FEV1 change from baseline, Q1: -385 mL
  Pre-BD FEV1 change from baseline, Q3: 0 mL
  Pre-BD FVC % change from baseline, Max: 3%
  Pre-BD FVC % change from baseline, Mean ± SD: −3.2 ± 7.22%
  Pre-BD FVC % change from baseline, Median: −2.0%
  Pre-BD FVC % change from baseline, Min: −12%
  Pre-BD FVC % change from baseline, Q1: −9%
  Pre-BD FVC % change from baseline, Q3: 3%
  Pre-BD FVC Observed, Max: 3380 mL
  Pre-BD FVC Observed, Mean ± SD: 2900.0 ± 503.26 mL
  Pre-BD FVC Observed, Median: 2985.0 mL
  Pre-BD FVC Observed, Min: 2250 mL
  Pre-BD FVC Observed, Q1: 2510 mL
  Pre-BD FVC Observed, Q3: 3290 mL
  Pre-BD FVC change from baseline, Max: 80 mL
  Pre-BD FVC change from baseline, Mean ± SD: -95.0 ± 203.55 mL
  Pre-BD FVC change from baseline, Median: -80.0 mL
  Pre-BD FVC change from baseline, Min: -300 mL
  Pre-BD FVC change from baseline, Q1: -270 mL
  Pre-BD FVC change from baseline, Q3: 80 mL
  Pre-BD Peak Flow % change from baseline, Max: 930%
  Pre-BD Peak Flow % change from baseline, Mean ± SD: 236.0 ± 462.72%
  Pre-BD Peak Flow % change from baseline, Median: 8.1%
  Pre-BD Peak Flow % change from baseline, Min: −2%
  Pre-BD Peak Flow % change from baseline, Q1: 1%
  Pre-BD Peak Flow % change from baseline, Q3: 471%
  Pre-BD Peak Flow Observed, Max: 412 L/min
  Pre-BD Peak Flow Observed, Mean ± SD: 258.0 ± 118.14 L/min
  Pre-BD Peak Flow Observed, Median: 248.0 L/min
  Pre-BD Peak Flow Observed, Min: 124 L/min
  Pre-BD Peak Flow Observed, Q1: 186 L/min
  Pre-BD Peak Flow Observed, Q3: 331 L/min
  Pre-BD Peak Flow change from baseline, Max: 372 L/min
  Pre-BD Peak Flow change from baseline, Mean ± SD: 101.5 ± 180.70 L/min
  Pre-BD Peak Flow change from baseline, Median: 18.5 L/min
  Pre-BD Peak Flow change from baseline, Min: -3 L/min
  Pre-BD Peak Flow change from baseline, Q1: 5 L/min
  Pre-BD Peak Flow change from baseline, Q3: 199 L/min
>=50% AEC reduction at Week 16
  Pre-BD FEF25-75 % change from baseline, Max: 27%
  Pre-BD FEF25-75 % change from baseline, Mean ± SD: 13.6 ± 13.59%
  Pre-BD FEF25-75 % change from baseline, Median: 13.7%
  Pre-BD FEF25-75 % change from baseline, Min: 0%
  Pre-BD FEF25-75 % change from baseline, Q1: 0%
  Pre-BD FEF25-75 % change from baseline, Q3: 27%
  Pre-BD FEF25-75 Observed, Max: 1170 mL/s
  Pre-BD FEF25-75 Observed, Mean ± SD: 736.7 ± 486.76 mL/s
  Pre-BD FEF25-75 Observed, Median: 830.0 mL/s
  Pre-BD FEF25-75 Observed, Min: 210 mL/s
  Pre-BD FEF25-75 Observed, Q1: 210 mL/s
  Pre-BD FEF25-75 Observed, Q3: 1170 mL/s
  Pre-BD FEF25-75 change from baseline, Max: 250 mL/s
  Pre-BD FEF25-75 change from baseline, Mean ± SD: 116.7 ± 125.83 mL/s
  Pre-BD FEF25-75 change from baseline, Median: 100.0 mL/s
  Pre-BD FEF25-75 change from baseline, Min: 0 mL/s
  Pre-BD FEF25-75 change from baseline, Q1: 0 mL/s
  Pre-BD FEF25-75 change from baseline, Q3: 250 mL/s
  Pre-BD FEV1 % change from baseline, Max: 52%
  Pre-BD FEV1 % change from baseline, Mean ± SD: 22.5 ± 25.80%
  Pre-BD FEV1 % change from baseline, Median: 8.3%
  Pre-BD FEV1 % change from baseline, Min: 7%
  Pre-BD FEV1 % change from baseline, Q1: 7%
  Pre-BD FEV1 % change from baseline, Q3: 52%
  Pre-BD FEV1 Observed, Max: 1980 mL
  Pre-BD FEV1 Observed, Mean ± SD: 1523.3 ± 657.29 mL
  Pre-BD FEV1 Observed, Median: 1820.0 mL
  Pre-BD FEV1 Observed, Min: 770 mL
  Pre-BD FEV1 Observed, Q1: 770 mL
  Pre-BD FEV1 Observed, Q3: 1980 mL
  Pre-BD FEV1 change from baseline, Max: 680 mL
  Pre-BD FEV1 change from baseline, Mean ± SD: 290.0 ± 340.73 mL
  Pre-BD FEV1 change from baseline, Median: 140.0 mL
  Pre-BD FEV1 change from baseline, Min: 50 mL
  Pre-BD FEV1 change from baseline, Q1: 50 mL
  Pre-BD FEV1 change from baseline, Q3: 680 mL
  Pre-BD FVC % change from baseline, Max: 29%
  Pre-BD FVC % change from baseline, Mean ± SD: 13.7 ± 13.73%
  Pre-BD FVC % change from baseline, Median: 10.0%
  Pre-BD FVC % change from baseline, Min: 2%
  Pre-BD FVC % change from baseline, Q1: 2%
  Pre-BD FVC % change from baseline, Q3: 29%
  Pre-BD FVC Observed, Max: 3250 mL
  Pre-BD FVC Observed, Mean ± SD: 2743.3 ± 470.57 mL
  Pre-BD FVC Observed, Median: 2660.0 mL
  Pre-BD FVC Observed, Min: 2320 mL
  Pre-BD FVC Observed, Q1: 2320 mL
  Pre-BD FVC Observed, Q3: 3250 mL
  Pre-BD FVC change from baseline, Max: 730 mL
  Pre-BD FVC change from baseline, Mean ± SD: 333.3 ± 351.62 mL
  Pre-BD FVC change from baseline, Median: 210.0 mL
  Pre-BD FVC change from baseline, Min: 60 mL
  Pre-BD FVC change from baseline, Q1: 60 mL
  Pre-BD FVC change from baseline, Q3: 730 mL
  Pre-BD Peak Flow % change from baseline, Max: 115%
  Pre-BD Peak Flow % change from baseline, Mean ± SD: 50.4 ± 56.32%
  Pre-BD Peak Flow % change from baseline, Median: 21.5%
  Pre-BD Peak Flow % change from baseline, Min: 14%
  Pre-BD Peak Flow % change from baseline, Q1: 14%
  Pre-BD Peak Flow % change from baseline, Q3: 115%
  Pre-BD Peak Flow Observed, Max: 338 L/min
  Pre-BD Peak Flow Observed, Mean ± SD: 240.0 ± 88.20 L/min
  Pre-BD Peak Flow Observed, Median: 215.0 L/min
  Pre-BD Peak Flow Observed, Min: 167 L/min
  Pre-BD Peak Flow Observed, Q1: 167 L/min
  Pre-BD Peak Flow Observed, Q3: 338 L/min
  Pre-BD Peak Flow change from baseline, Max: 181 L/min
  Pre-BD Peak Flow change from baseline, Mean ± SD: 80.0 ± 87.88 L/min
  Pre-BD Peak Flow change from baseline, Median: 38.0 L/min
  Pre-BD Peak Flow change from baseline, Min: 21 L/min
  Pre-BD Peak Flow change from baseline, Q1: 21 L/min
  Pre-BD Peak Flow change from baseline, Q3: 181 L/min
